Drawing on patent US10508104B2, “6-hydroxy-5-(phenyl/heteroarylsulfonyl)pyrimidin-4(1H)-one as APJ agonists” (Bristol-Myers Squibb Company, priority 2016, dated 2019), this text covers EC50 for eleven compounds.

The structures appear in SMILES notation.

The experiment deals with human APJ receptor (Homo sapiens (Human), UniProt P35414). As to the kind of experiment: Intracellular cAMP accumulation assay (APJ hcAMP, HTRF). Type of experiment: cell-based. Conditions: human APJ, intracellular cAMP accumulation; read-out: Human APJ cAMP EC50 Potency range. As to the method:
Intracellular cAMP Accumulation Assay
HEK293 cells stably expressing human APJ receptor were used to assess the activity of compounds. Cultured cells were detached and resuspended in the cAMP Homogeneous Time-Resolved Fluorescence (HTRF) assay buffer (Cisbio cat; #62AM4PEJ). The assay was performed in 384-well assay plates (Perkin-Elmer; cat #6008289) according to assay protocol provided by the manufacturer. Serial dilutions of a compound together with assay buffer containing […] and 2 μM forskolin were added to each well containing 5,000 cells and incubated for 30 minutes at room temperature. Subsequently, cAMP D2 reagent was added in the lysis buffer followed by the EuK antibody (Cisbio; cat #62AM4PEJ) and incubated for 60 min. The fluorescence emission ratio was measured using fluorometer. The intracellular cAMP concentrations (compound-stimulated inhibition of forskolin-mediated cAMP production) were calculated by extrapolation from a standard curve using known cAMP concentrations. The EC50 values were obtained by fitting the data to a sigmoidal concentration-response curve with variable slope.
The EC50 value of each compound is presented at the end of the example description.
The biological activity of the exemplified compounds of this invention determined by the assay described above is shown at the end of each example.
Background: cAMP levels reflect the balance of adenylyl cyclase and phosphodiesterase activity.

human APJ receptor, sequence (P35414 whole entry): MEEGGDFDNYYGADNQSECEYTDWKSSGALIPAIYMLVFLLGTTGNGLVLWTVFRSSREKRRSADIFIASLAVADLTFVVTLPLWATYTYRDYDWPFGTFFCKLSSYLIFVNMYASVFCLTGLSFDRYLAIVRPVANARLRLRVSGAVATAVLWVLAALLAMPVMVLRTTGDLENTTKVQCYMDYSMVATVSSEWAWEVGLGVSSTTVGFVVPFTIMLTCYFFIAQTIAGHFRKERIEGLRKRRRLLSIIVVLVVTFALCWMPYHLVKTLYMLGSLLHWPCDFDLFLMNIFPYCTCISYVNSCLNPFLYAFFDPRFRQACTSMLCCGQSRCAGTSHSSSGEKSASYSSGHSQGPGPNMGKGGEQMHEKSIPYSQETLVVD

With `CCCCc1nc(=O)c(S(=O)(=O)c2ccc(-c3ccc(F)nc3)cc2)c(O)n1-c1c(OC)cccc1OC` [Example 15, 2-butyl-1-(2,6-dimethoxyphenyl)-5-[4-(6-fluoropyridin-3-yl)benzenesulfonyl]-6-hydroxy-1,4-dihydropyrimidin-4-one], the EC50 fell in the range of 0.01 to 10 nM.

Turning to `CCCCc1nc(=O)c(S(=O)(=O)c2ccc(-c3ccc(C#N)nc3)cc2)c(O)n1-c1c(OC)cccc1OC` [Example 16, 5-(4-{[2-butyl-1-(2,6-dimethoxyphenyl)-6-hydroxy-4-oxo-1,4-dihydropyrimidin-5-yl]sulfonyl)phenyl)pyri-dine-2-carbonitrile], the EC50 lay in the range of 0.01 to 10 nM.

With `COc1cccc(OC)c1-n1c(CCC(C)C)nc(=O)c(S(=O)(=O)c2ccc(-c3ccc(C#N)nc3)cc2)c1O` [Example 17, 5-(4-{[1-(2,6-dimethoxyphenyl)-6-hydroxy-2-(3-methylbutyl)-4-oxo-1,4-dihydropyrimidin-5-yl]sulfonyl}phenyl)pyri-dine-2-carbonitrile], the concentration for a half-maximal effect (EC50) lay within 0.01 to 10 nM.

Turning to `COc1cccc(OC)c1-n1c(CCC(C)C)nc(=O)c(S(=O)(=O)c2cccc(-c3ccc(F)cc3)c2)c1O` [Example 18, 1-(2,6-dimethoxyphenyl)-5-[3-(4-fluorophenyl)benzene-sulfonyl]-6-hydroxy-2-(3-methylbutyl)-1,4-dihydropyrimidin-4-one], the EC50 lay in the range of 0.01 to 10 nM.

Turning to `COc1cccc(OC)c1-n1c(CCC(C)C)nc(=O)c(S(=O)(=O)c2cccc(-c3ccccc3)c2)c1O` [Example 19, 1-(2,6-dimethoxyphenyl)-6-hydroxy-2-(3-methylbutyl)-5-(3-phenylbenzenesulfonyl)-1,4-dihydropyrimidin-4-one], the EC50 lay in the range of 0.01 to 10 nM.

For `COc1cccc(OC)c1-n1c(CCC(C)C)nc(=O)c(S(=O)(=O)c2cccc(-c3cn(C)nc3C(F)(F)F)c2)c1O` [Example 20, 1-(2,6-dimethoxyphenyl)-6-hydroxy-5-{3-[1-methyl-3-(trifluoromethyl)-1H-pyrazol-4-yl]benzenesulfonyl}-2-(3-methylbutyl)-1,4-dihydropyrimidin-4-one], the EC50 lay within 0.01 to 10 nM.

For the compound `COc1cccc(OC)c1-n1c(CCC(C)C)nc(=O)c(S(=O)(=O)c2ccccc2-c2ccc(F)cc2)c1O` [Example 21, 1-(2,6-dimethoxyphenyl)-5-[2-(4-fluorophenyl)benzene-sulfonyl]-6-hydroxy-2-(3-methylbutyl)-1,4-dihydropyrimidin-4-one], the half-maximal effective concentration (EC50) lay in the range of 10 to 100 nM.

Regarding `COc1cccc(OC)c1-n1c(CCC(C)C)nc(=O)c(S(=O)(=O)c2ccccc2-c2ccccc2)c1O` [Example 22, 1-(2,6-dimethoxyphenyl)-6-hydroxy-2-(3-methylbutyl)-5-(2-phenylbenzenesulfonyl)-1,4-dihydropyrimidin-4-one], the half-maximal effective concentration (EC50) lay within 10 to 100 nM.

As to `COc1cccc(OC)c1-n1c(CCC(C)C)nc(=O)c(S(=O)(=O)c2cccc(-c3ccc(F)nc3)c2)c1O` [Example 23, 1-(2,6-dimethoxyphenyl)-5-[3-(6-fluoropyridin-3-yl)benzenesulfonyl]-6-hydroxy-2-(3-methylbutyl)-1,4-dihydropyrimidin-4-one], the EC50 lay within 0.01 to 10 nM.

Take `COc1cccc(OC)c1-n1c(CCC(C)C)nc(=O)c(S(=O)(=O)c2ccccc2-c2ccc(F)nc2)c1O` [Example 24, 1-(2,6-dimethoxyphenyl)-5-[2-(6-fluoropyridin-3-yl)benzenesulfonyl]-6-hydroxy-2-(3-methylbutyl)-1,4-dihydropyrimidin-4-one]: the concentration giving a half-maximal response (EC50) was 10 to 100 nM.

On to `COc1cccc(OC)c1-n1c(CCC(C)C)nc(=O)c(S(=O)(=O)c2ccccc2-c2cn(C)nc2C(F)(F)F)c1O` [Example 25, 1-(2,6-dimethoxyphenyl)-6-hydroxy-5-{2-[1-methyl-3-(trifluoromethyl)-1H-pyrazol-4-yl]benzenesulfonyl}-2-(3-methylbutyl)-1,4-dihydropyrimidin-4-one], for which the EC50 fell in the range of 100 to 300 nM.

Broadly, the EC50 is the concentration giving half of the maximal effect.
